Results reported in ChEMBL document CHEMBL1201862, “PubChem BioAssay data set” (2004).
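1) Cells in 96-well plates. 2) Compound, 48 h, 5 concentrations. 3) Linear interpolation between surrounding doses. 4) Unreached endpoint = highest concentration. Here, GI50 denotes the concentration required for 50% inhibition of growth.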 Active and inactive are the calls of the source. Rule as the data show it: active = GI50 up to about 1.1 µM and inactive = higher.

Legend:
Test in all cases: DTP human tumour cell line panel, 48 h
[1] = tested on: COLO 205
[2] = tested on: SW-620
[3] = tested on: MOLT-4
[4] = tested on: ACHN
[5] = tested on: NCI-H460
[6] = tested on: SNB-19
[7] = tested on: M14
[8] = tested on: HCC 2998
[9] = tested on: A498
[10] = tested on: HT-29
[11] = tested on: OVCAR-8
[12] = tested on: NCI-H23
[13] = tested on: SF-295
[14] = tested on: OVCAR-3
[15] = tested on: UACC-257

| SMILES | GI50 [1] | GI50 [2] | GI50 [3] | GI50 [4] | GI50 [5] | GI50 [6] | GI50 [7] | GI50 [8] | GI50 [9] | GI50 [10] | GI50 [11] | GI50 [12] | GI50 [13] | GI50 [14] | GI50 [15] |
| --- | --- | --- | --- | --- | --- | --- | --- | --- | --- | --- | --- | --- | --- | --- | --- |
| Oc1ccc(O)c(-n2cccn2)c1 | 23 µM (inactive) | 29.3 µM (inactive) | 21.9 µM (inactive) | > 100 µM (inactive) | > 100 µM (inactive) | > 100 µM (inactive) | > 100 µM (inactive) | > 100 µM (inactive) | > 100 µM (inactive) | 65.9 µM (inactive) | 40.7 µM (inactive) | > 100 µM (inactive) | 95.1 µM (inactive) | – | – |
| CCOC(=O)C(=O)Nc1nc2c(OCC)cccc2s1 | > 100 µM (inactive) | > 100 µM (inactive) | > 100 µM (inactive) | > 100 µM (inactive) | > 100 µM (inactive) | > 100 µM (inactive) | > 100 µM (inactive) | > 100 µM (inactive) | > 100 µM (inactive) | > 100 µM (inactive) | > 100 µM (inactive) | > 100 µM (inactive) | > 100 µM (inactive) | > 100 µM (inactive) | > 100 µM (inactive) |
| CN(C)CCNC(=O)c1cccc2c1nc(-c1ccccc1)c1ccccc12 | 3.48 µM (inactive) | 2.4 µM (inactive) | 0.323 µM (active) | 2.88 µM (inactive) | 0.4 µM (active) | 11.3 µM (inactive) | 2.07 µM (inactive) | 3.82 µM (inactive) | 0.91 µM (active) | 3.35 µM (inactive) | 4.43 µM (inactive) | 6.65 µM (inactive) | 4.67 µM (inactive) | 8.09 µM (inactive) | 1.73 µM (inactive) |
| O=C(Nc1cccc(NC(=O)c2cc(=O)c3ccccc3o2)n1)c1cc(=O)c2ccccc2o1 | 74.3 µM (inactive) | > 100 µM (inactive) | 49.4 µM (inactive) | 8.32 µM (inactive) | 40.4 µM (inactive) | 68.9 µM (inactive) | 12.3 µM (inactive) | 60.1 µM (inactive) | 75.5 µM (inactive) | – | > 100 µM (inactive) | 20.1 µM (inactive) | – | 37.6 µM (inactive) | 56.5 µM (inactive) |
| CC(C)(C)OC(=O)N1N=NC2C1C1CC(OCc3ccccc3)(OCc3ccccc3)C2O1 (stereo unspecified) | > 100 µM (inactive) | 14.7 µM (inactive) | 7.82 µM (inactive) | > 100 µM (inactive) | > 100 µM (inactive) | – | 44.1 µM (inactive) | > 100 µM (inactive) | > 100 µM (inactive) | > 100 µM (inactive) | – | 21.1 µM (inactive) | 40 µM (inactive) | 30.3 µM (inactive) | 23.6 µM (inactive) |
| CC12CC[C@@H](C(C)(C)O)C1[C@@H](O)CC1(C)C2CCC2[C@@]3(C)CC[C@H](O)C(C)(C)C3C(O)C[C@]21C (stereo partly specified) | 15.6 µM (inactive) | 18 µM (inactive) | 4.07 µM (inactive) | 13.1 µM (inactive) | 15.3 µM (inactive) | 21.1 µM (inactive) | 19.9 µM (inactive) | 16.3 µM (inactive) | 13.5 µM (inactive) | 12.6 µM (inactive) | 16.5 µM (inactive) | 16.1 µM (inactive) | 18.3 µM (inactive) | 16.8 µM (inactive) | > 10 µM (inactive) |
| O=C(c1ccc2c3c(ccc(C(=O)C(F)(F)F)c13)CC2)C(F)(F)F | 21.5 µM (inactive) | > 100 µM (inactive) | 61.4 µM (inactive) | 58.9 µM (inactive) | 69.8 µM (inactive) | 86.7 µM (inactive) | 34.4 µM (inactive) | > 100 µM (inactive) | 47.9 µM (inactive) | 52.1 µM (inactive) | 47.5 µM (inactive) | 43.3 µM (inactive) | 44.6 µM (inactive) | 69.8 µM (inactive) | 42.3 µM (inactive) |
| CC(=O)O[C@H]1CCN2C(=O)C=CC(OCc3ccccc3)C12 (stereo partly specified) | > 100 µM (inactive) | > 100 µM (inactive) | > 100 µM (inactive) | > 100 µM (inactive) | > 100 µM (inactive) | – | > 100 µM (inactive) | > 100 µM (inactive) | > 100 µM (inactive) | > 100 µM (inactive) | > 100 µM (inactive) | > 100 µM (inactive) | > 100 µM (inactive) | > 100 µM (inactive) | > 100 µM (inactive) |
| Cc1nnc2n1N=C(c1ccc(-c3ccc([N+](=O)[O-])cc3)o1)CS2 | > 100 µM (inactive) | > 100 µM (inactive) | > 100 µM (inactive) | > 100 µM (inactive) | > 100 µM (inactive) | > 100 µM (inactive) | > 100 µM (inactive) | > 100 µM (inactive) | – | – | > 100 µM (inactive) | 35.1 µM (inactive) | > 100 µM (inactive) | > 100 µM (inactive) | > 100 µM (inactive) |
